# Reference: patent publication US20230049952A1, “METHODS AND COMPOUNDS FOR RESTORING MUTANT P53 FUNCTION” (PMV Pharmaceuticals, Inc., priority 2020, published 2023)
# Molecular target: p53 Y220C in MT373 tumors (Homo sapiens, UniProt P04637, Y220C)
# Assay: MT373 syngeneic sarcoma model: mutant, WT and total p53 ELISA in tumors
# Type: in vivo, mouse
# Details: for Mutant p53 Protein, Percent Reduction Relative to Vehicle Control / Total p53 Protein, Percent Reduction Relative to Vehicle Control / WT p53 Protein, Fold Change over Vehicle Control: MT373 tumors
# Protocol: Tumor Lysate Preparation: Lysis buffer was added to tumor samples and homogenized using a TissueLyser LT. Homogenized samples were spun by centrifuge for 30 minutes at 20817×g, and the supernatant transferred to a 1.5-mL tube. Protein samples were quantified, aliquoted into 96-well plates, and stored at −80° C.
# Tumor lysates were diluted in blocking buffer such that the required protein amount is added to the plate in a 100 μL volume (WT p53 7.5 μg; mutant p53 2.5 μg; Total p53 2.5 μg). […] Plates were washed, and the reaction was developed using TMB for approximately 5 minutes and quenched with 0.16 M sulfuric acid. […] A background measurement was subtracted from the treated samples' signals. The signals were normalized to the respective vehicle controls.
smiles,measurement,setting,value
"CCn1c(C#CCNc2ccccc2)cc2cc(CNC3CCN(C)CC3)ccc21 [Compound 1, 1-Anilino-3-{1-ethyl-5-[(1-methyl-4-piperidylamino)methyl]-1H-indol-2-yl}-2-propyne]","Mutant p53 Protein, Percent Reduction Relative to Vehicle Control","75 mg/kg BIDx1 PO, 8 h",53.91%
same,"Total p53 Protein, Percent Reduction Relative to Vehicle Control","75 mg/kg BIDx1 PO, 8 h",35.06%
same,"WT p53 Protein, Fold Change over Vehicle Control","75 mg/kg BIDx1 PO, 8 h",1.25 fold
same,"Mutant p53 Protein, Percent Reduction Relative to Vehicle Control","75 mg/kg BIDx1 PO, 24 h",79.50%
same,"Total p53 Protein, Percent Reduction Relative to Vehicle Control","75 mg/kg BIDx1 PO, 24 h",72.38%
same,"WT p53 Protein, Fold Change over Vehicle Control","75 mg/kg BIDx1 PO, 24 h",1.13 fold
same,"Mutant p53 Protein, Percent Reduction Relative to Vehicle Control","75 mg/kg BIDx1 PO, 48 h",67.23%
same,"Total p53 Protein, Percent Reduction Relative to Vehicle Control","75 mg/kg BIDx1 PO, 48 h",63.03%
same,"WT p53 Protein, Fold Change over Vehicle Control","75 mg/kg BIDx1 PO, 48 h",1.02 fold
same,"Mutant p53 Protein, Percent Reduction Relative to Vehicle Control","75 mg/kg BIDx1 PO, 72 h",16.87%
same,"Total p53 Protein, Percent Reduction Relative to Vehicle Control","75 mg/kg BIDx1 PO, 72 h",19.65%
same,"WT p53 Protein, Fold Change over Vehicle Control","75 mg/kg BIDx1 PO, 72 h",1.11 fold
same,"Mutant p53 Protein, Percent Reduction Relative to Vehicle Control","75 mg/kg BIDx1 PO, 98 h",0.00%
same,"Total p53 Protein, Percent Reduction Relative to Vehicle Control","75 mg/kg BIDx1 PO, 98 h",0.00%
same,"WT p53 Protein, Fold Change over Vehicle Control","75 mg/kg BIDx1 PO, 98 h",1.13 fold
same,"Mutant p53 Protein, Percent Reduction Relative to Vehicle Control","75 mg/kg BIDx1 PO, […]",45.58%
same,"Total p53 Protein, Percent Reduction Relative to Vehicle Control","75 mg/kg BIDx1 PO, […]",44.67%
same,"WT p53 Protein, Fold Change over Vehicle Control","75 mg/kg BIDx1 PO, […]",0.88 fold
same,increase in WT conformation p53,"75 mg/kg BID×1 PO, 8 h",1.25 fold
same,"Mutant p53 Protein, Percent Reduction Relative to Vehicle Control","150 mg/kg BIDx1 PO, 8 h",82.30%
same,"Total p53 Protein, Percent Reduction Relative to Vehicle Control","150 mg/kg BIDx1 PO, 8 h",56.64%
same,"WT p53 Protein, Fold Change over Vehicle Control","150 mg/kg BIDx1 PO, 8 h",1.45 fold
same,"Mutant p53 Protein, Percent Reduction Relative to Vehicle Control","150 mg/kg BIDx1 PO, 24 h",93.74%
same,"Total p53 Protein, Percent Reduction Relative to Vehicle Control","150 mg/kg BIDx1 PO, 24 h",81.75%
same,"WT p53 Protein, Fold Change over Vehicle Control","150 mg/kg BIDx1 PO, 24 h",1.08 fold
same,"Mutant p53 Protein, Percent Reduction Relative to Vehicle Control","150 mg/kg BIDx1 PO, 48 h",81.64%
same,"Total p53 Protein, Percent Reduction Relative to Vehicle Control","150 mg/kg BIDx1 PO, 48 h",81.46%
same,"WT p53 Protein, Fold Change over Vehicle Control","150 mg/kg BIDx1 PO, 48 h",0.94 fold
same,"Mutant p53 Protein, Percent Reduction Relative to Vehicle Control","150 mg/kg BIDx1 PO, 72 h",58.64%
same,"Total p53 Protein, Percent Reduction Relative to Vehicle Control","150 mg/kg BIDx1 PO, 72 h",60.43%
same,"WT p53 Protein, Fold Change over Vehicle Control","150 mg/kg BIDx1 PO, 72 h",0.86 fold
same,"Mutant p53 Protein, Percent Reduction Relative to Vehicle Control","150 mg/kg BIDx1 PO, 98 h",0.00%
same,"Total p53 Protein, Percent Reduction Relative to Vehicle Control","150 mg/kg BIDx1 PO, 98 h",0.60%
same,"WT p53 Protein, Fold Change over Vehicle Control","150 mg/kg BIDx1 PO, 98 h",0.95 fold
same,"Mutant p53 Protein, Percent Reduction Relative to Vehicle Control","150 mg/kg BIDx1 PO, […]",34.14%
same,"Total p53 Protein, Percent Reduction Relative to Vehicle Control","150 mg/kg BIDx1 PO, […]",32.40%
same,"WT p53 Protein, Fold Change over Vehicle Control","150 mg/kg BIDx1 PO, […]",0.86 fold
same,increase in WT conformation p53,"150 mg/kg BID×1 PO, 8 h",1.45 fold
